Our source for the IC50 values is patent publication US8338465B2, “Cyclic carboxylic acid rhodanine derivatives for the treatment and prevention of tuberculosis” (priority 2006, dated 2012).

Some results are limits rather than exact numbers.

For this experiment, the target named is T1, dihydrolipoamide acyltransferase (DlaT) (Mycobacterium tuberculosis, UniProt P9WIS7).
T1 sequence (P9WIS7 1-553): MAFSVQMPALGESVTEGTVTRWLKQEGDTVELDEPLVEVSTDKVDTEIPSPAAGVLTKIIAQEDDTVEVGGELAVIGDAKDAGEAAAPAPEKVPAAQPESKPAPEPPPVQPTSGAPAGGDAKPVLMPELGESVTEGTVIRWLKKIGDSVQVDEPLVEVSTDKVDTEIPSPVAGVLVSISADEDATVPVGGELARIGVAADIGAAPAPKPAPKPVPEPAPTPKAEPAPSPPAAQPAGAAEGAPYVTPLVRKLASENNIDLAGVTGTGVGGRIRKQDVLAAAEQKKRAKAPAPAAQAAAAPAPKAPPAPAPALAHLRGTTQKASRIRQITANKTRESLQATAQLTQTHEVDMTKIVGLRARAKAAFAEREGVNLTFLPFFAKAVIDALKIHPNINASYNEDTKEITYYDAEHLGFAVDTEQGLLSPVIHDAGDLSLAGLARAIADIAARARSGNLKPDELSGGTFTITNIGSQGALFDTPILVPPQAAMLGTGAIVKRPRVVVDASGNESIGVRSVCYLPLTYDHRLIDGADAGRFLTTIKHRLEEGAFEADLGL
Description: DlaT inhibition (Dlat IC50); DTNB peroxidase assay with Lpd, DlaT and AhpD. To be noted: Table 1, Compounds A1 to A294; read-out: Dlat IC50 category. Type of experiment: biochemical.
For `CC(C)(C)c1ccc(-c2ccc(C=C3SC(=S)N(c4ccc(O)c(C(=O)O)c4)C3=O)o2)cc1` [Compound A59], the IC50 (in general, the concentration that gives 50% inhibition) was less than 10 µM.
The value for `O=C(O)COc1cccc(N2C(=O)C(=Cc3ccc(-c4ccc(Cl)cc4)o3)SC2=S)c1` [Compound A60] was 11 to 40 µM; that for `CC(C)c1cccc(-c2ccc(C=C3SC(=S)N(c4ccc(O)c(C(=O)O)c4)C3=O)o2)c1` [Compound A61] was less than 10 µM.
With `O=C(O)c1cc(N2C(=O)C(=Cc3ccc(-c4ccc(CSc5ccccc5)cc4)o3)SC2=S)ccc1O` [Compound A62] the figure was 11 to 40 µM; with `CC(C)c1cccc(-c2ccc(C=C3SC(=S)N(c4cccc(OCC(=O)O)c4)C3=O)o2)c1` [Compound A63], less than 10 µM; with `CC(C)Cc1ccc(-c2ccc(C=C3SC(=S)N(c4cccc(C(=O)O)c4)C3=O)o2)cc1` [Compound A64], less than 10 µM.
`CC(C)Cc1ccc(-c2ccc(C=C3SC(=S)N(c4ccc(O)c(C(=O)O)c4)C3=O)o2)cc1` [Compound A65]: the IC50 was less than 10 µM.
As for `O=C(O)c1cc(N2C(=O)C(=Cc3ccc(-c4ccccc4Cl)o3)SC2=S)ccc1Cl` [Compound A66], the IC50 is less than 10 µM.
Turning to `O=C(O)c1cc(N2C(=O)C(=Cc3ccc(-c4cccc(C(F)(F)F)c4)o3)SC2=S)ccc1Cl` [Compound A67], the IC50 was less than 10 µM.
The value for `O=C(O)c1cc(N2C(=O)C(=Cc3ccc(-c4ccc(Cl)cc4)o3)SC2=S)ccc1Cl` [Compound A68] was less than 10 µM; that for `O=C(O)c1cc(N2C(=O)C(=Cc3ccc(-c4ccccc4OC(F)(F)F)o3)SC2=S)ccc1Cl` [Compound A69] was less than 10 µM; that for `O=C(O)c1cccc(N2C(=O)C(=Cc3ccc(-c4ccccc4OC(F)(F)F)o3)SC2=S)c1` [Compound A70] was less than 10 µM.
For the compound `O=C(O)c1ccc(Cl)c(N2C(=O)C(=Cc3ccc(-c4ccccc4Cl)o3)SC2=S)c1` [Compound A71], the IC50 was less than 10 µM.
Regarding `O=C(O)c1ccc(Cl)c(N2C(=O)C(=Cc3ccc(-c4ccc(Cl)cc4)o3)SC2=S)c1` [Compound A72], the IC50 was less than 10 µM.
The value for `O=C(O)c1ccc(Cl)c(N2C(=O)C(=Cc3ccc(-c4cccc(C(F)(F)F)c4)o3)SC2=S)c1` [Compound A73] was less than 10 µM; that for `COc1ccc(C(=O)O)cc1N1C(=O)C(=Cc2ccc(-c3ccccc3Cl)o2)SC1=S` [Compound A74] was less than 10 µM.
For the compound `NC(=O)c1cccc(N2C(=O)C(=Cc3ccc(-c4ccccc4Cl)o3)SC2=S)c1` [Compound A75], the IC50 is 11 to 40 µM.
With `NC(=O)c1cccc(N2C(=O)C(=Cc3ccc(-c4cccc(C(F)(F)F)c4)o3)SC2=S)c1` [Compound A76] the figure was 11 to 40 µM.
As for `NC(=O)c1cccc(N2C(=O)C(=Cc3ccc(-c4ccc(Cl)cc4)o3)SC2=S)c1` [Compound A77], the IC50 is 11 to 40 µM.
The value for `Cc1ccc(C(=O)O)cc1N1C(=O)C(=Cc2ccc(-c3ccccc3Cl)o2)SC1=S` [Compound A78] was less than 10 µM.
Take `Cc1c(C(=O)O)cccc1N1C(=O)C(=Cc2ccc(-c3ccccc3Cl)o2)SC1=S` [Compound A79]: the IC50 is less than 10 µM.
The value for `Cc1ccc(C(=O)O)cc1N1C(=O)C(=Cc2ccc(-c3ccc(C(C)(C)C)cc3)o2)SC1=S` [Compound A80] was less than 10 µM.
With `Cc1c(C(=O)O)cccc1N1C(=O)C(=Cc2ccc(-c3ccc(C(C)(C)C)cc3)o2)SC1=S` [Compound A81] the figure was less than 10 µM; with `Cc1ccc(C(=O)O)cc1N1C(=O)C(=Cc2ccc(-c3ccc(C4CCCCC4)cc3)o2)SC1=S` [Compound A82], less than 10 µM.
In the case of `Cc1c(C(=O)O)cccc1N1C(=O)C(=Cc2ccc(-c3ccc(C4CCCCC4)cc3)o2)SC1=S` [Compound A83], the IC50 is less than 10 µM.
The value for `O=C(O)c1cccc(N2C(=O)C(=Cc3ccc(-c4ccc(Cc5ccc(Cl)cc5)cc4)o3)SC2=S)c1` [Compound A84] was less than 10 µM; that for `COc1ccc(C(=O)O)cc1N1C(=O)C(=Cc2ccc(-c3cccc(C(F)(F)F)c3)o2)SC1=S` [Compound A86] was less than 10 µM.
